From patent publication US20050032688A1, “Use of angiotensin II fragments and analogs thereof in tissue repair” (University of Southern California, priority 1993, published 2005)
Entries after “also recorded” stand apart in the source; their conditions may differ. Read-outs that look alike come from different tables or passages of the source. Ends that are not written are not given here.

What was measured:
[1] = tested on: porcine aortic endothelial cells; settings: cited from earlier work
[2] = tested on: motility, stereotypy and learning of conditioned avoidance responses; settings: injected in the lateral cerebral ventricle, rats; cited from earlier work
[3] = tested on: neurons in the paraventricular nucleus; settings: cited from earlier work
water intake = settings: injected into the anterior diencephalons in the rat; cited from earlier work
[4] = tested on: rat glomerulus preparations; settings: through the AT1 receptor; cited from earlier work
blood pressure [5] = settings: in vivo; cited from earlier work
[6] = in contrast to AII; cited from earlier work
[7] = tested on: porcine vascular smooth muscle cells; settings: cited from earlier work
rat mesangial cells = settings: through the AT1 receptor; cited from earlier work
blood pressure [8] = settings: cited from earlier work
[9] = tested on: porcine coronary artery rings; settings: perhaps through nitric oxide; cited from earlier work
[10] = tested on: rat isolated nodose ganglion; settings: cited from earlier work
human astrocytes = settings: cited from earlier work
[11] = tested on: baroreceptor-heart-reflex; settings: in vivo; cited from earlier work
rat adrenal medulla = settings: cited from earlier work
wound tissue = settings: application to wound tissue; cited from earlier work
[12] = tested on: full thickness dermal wounds; test: Wound closure and granulation tissue in full thickness dermal wounds, carboxymethyl cellulose vehicle (Example 3); type: in vivo, Female Sprague Dawley rats; settings: tested fragments of AII
Protocol: Female Sprague Dawley rats, 175-200 g, were obtained from Simonsen Laboratories, Gilroy, Calif. On the day of surgery, the rats received intramuscular ketamine/rompum anesthesia prior to preparation for surgery. The rats were shaved and scrubbed with betadine. Two 1.5×1.5 cm full thickness dermal wounds were created on the dorsal surface of the rat. Following excision of the skin, the size of the wound was outlined on a glass slide and the medicament was administered ini 100 μl 10% low viscosity carboxymethyl cellulose (Sigma). The test materials were administered in a randomized fashion; all materials were tested at 100 μg/wound. Controls were treated with vehicle only. After administration of the materials, the rats were bandaged and allowed to recover from anesthesia. On days 1-4 after surgery, the rats were treated with an additional 100 μg of peptide formulation. At days 2, 4, 7 and 9, the area of the skin wounds were measured under methoxyflurane anesthesia (commercially available as Metofane from Pittman-Moore, Mundelein, Ill.). The area of the wound was determined by: (1) tracing the wound shape onto graph paper (1×1 mm squares); (2) cutting out the shape; (3) weighing the paper and comparing the weight with a 1.5×1.5 cm paper cutout; and (4) counting the number of squares. In addition, on days 2, 4 and 7, the area of granulation tissue was similarly determined.

blood pressure [13] = settings: intracerebroventricular infusion in the rat; concentrations 1000× higher than that of AII that increased blood pressure; cited from earlier work

In the case of “AI: a decapeptide called angiotensin I which is converted to angiotensin II (DRVYIHPFHL; Angiotensin-1; UniProt P01019 25-34, looked up)”, the “release of prostaglandin E2 and 12” value [1] is listed as “stimulated”.

For “Arg-Val-Tyr-Ile-His (RVYIH; printed: Arg-Val-Tyr-Ile-His) [AII(2-6)]”, the “motility, stereotypy and learning of conditioned avoidance responses (psychotropic activities)” value (from here on “motility, stereotypy and learning”) [2] is given as “not active”.

In the case of “Arg-Val-Tyr-Ile-His-Pro (RVYIHP) [AII(2-7)]”, the excitation of neurons [3] is listed as “inactive”.

For Asp-Arg-Val-Tyr (DRVY) [AII(1-4)], the “effect on water intake” value (water intake) is listed as “only a slight effect”.

For “Asp-Arg-Val-Tyr-Ile-His-Pro (DRVYIHP) [AII(1-7)]”, the “formation of cAMP in response to histamine, serotonin and parathyroid hormone” value [4] is given as “did not have this effect”, the “release of prostaglandin E2 and 12” value [1] is given as “stimulated” and the “amount required relative to AII to get a comparable pressor response” value (blood pressure [5]) is given as “about 10000 ×”. The depressor effect (blood pressure [5]) was “long depressor effect”, the pressor effect (blood pressure [5]) was “weak pressor” and the “effect on water intake” value (water intake) was “completely inactive”. For the same substance, the aldosterone release [6] was “does not cause”, the catecholamine release [6] was “does not cause” and the dipsogenic effect [6] was “not dipsogenic”. The prostaglandin release [7] was “increases”, the choline production (rat mesangial cells) was “very weak effects” and the “dose at which pressor effects on blood pressure occur, relative to AII” value (blood pressure [8]; depending upon the model tested and route of administration) was 10000-100000 times the dose of AII. The “depressor effect on blood pressure” value (blood pressure [8]; may be mediated through prostanoid synthesis) was “depressor effect”, the excitation of neurons [3] was “weaker” and the excitation of neurons ([3]; listed as Ang(1-7)) was “excited”. The “dilation of coronary artery rings” value [9] was “dilates”, the “depolarization of nodose ganglion” value [10] was “does not” and the prostaglandin release (human astrocytes) was “increases”.

For “Asp-Arg-Val-Tyr-Ile-His-Pro-Phe (DRVYIHPF) [AII]”, the “formation of cAMP in response to histamine, serotonin and parathyroid hormone” value [4] is listed as “inhibited”, the “release of prostaglandin E2 and 12” value [1] is listed as “did not have this effect” and the prostaglandin release [7] is listed as “increases”. The “release of intracellular Ca2+” value [7] was “increases”, the “sensitivity of the baroreceptor-heart-reflex” value [11] was “enhances” and the “motility, stereotypy and learning” value [2] was “increased”. For the same substance, the choline production (rat mesangial cells) was “stimulates”, the “evoked neuronal norepinephrine release” value (rat adrenal medulla) was “biphasic effect” and the “spontaneous neuronal norepinephrine release” value (rat adrenal medulla) was “increasing”. For the same substance, the “rate of wound healing” value (wound tissue) was “significantly increases”, the excitation of neurons [3] was “excited” and the “dilation of coronary artery rings” value [9] was “not observed”. For the same substance, the “depolarization of nodose ganglion” value [10] was “causes depolarization”, the prostaglandin release (human astrocytes) was “increases” and the “release of intracellular Ca2+” value (human astrocytes) was “increases”.

For DRVYIH [AII(1-6)], the “motility, stereotypy and learning” value [2] is listed as “not active” and the choline production (rat mesangial cells) is listed as “very weak effects”.

For His-Pro-Phe (HPF) [AII(6-8)], the “effectiveness in wound healing” value [12] was “not to be effective”.

In the case of Ile-His-Pro-Phe (IHPF) [AII(5-8)], the “effect on water intake” value (water intake) is listed as “only a slight effect” and the “effect on blood pressure” value (blood pressure [13]) is listed as “minimal effect”.

In the case of Try-Ile-His-Pro-Phe (YIHPF) [AII(4-8)], the “effect on water intake” value (water intake) is listed as “only a slight effect”, the “effectiveness in wound healing” value [12] is listed as “not to be effective; also recorded: ineffective” and the “effect on blood pressure” value (blood pressure [13]) is listed as “minimal effect”.

For Val-Tyr-Ile-His-Pro (VYIHP) [AII(3-7)], the depressor effect (blood pressure [5]) is given as “no depressor effect” and the pressor effect (blood pressure [5]) is given as “less of a pressor effect than AII(1-7)”.

In the case of “Val-Tyr-Ile-His-Pro-Phe (VYIHPF) [AII(3-8)]”, the “dilation of coronary artery rings” value [9] is listed as “not observed”.
